Results: US12358960B2, “Selective targeting of ubiquitin- and ubiquitin-like E1-activating enzymes by structurally-stabilized peptides” (Dana-Farber Cancer Institute, Inc., priority 2019, dated 2025)
Bridge positions count the residues as written; N and C are the ends. Square brackets hold non-standard residues; d marks the D form. Peptide text beside a SMILES is read from it. R8 = C=CCCCCCC[C@@](C)(N)C(=O)O; S5 = C=CCCC[C@](C)(N)C(=O)O; Nle = CCCC[C@H](N)C(=O)O

How the values were obtained:
UBA1 [1] = molecular target: T1, UBA1 (Homo sapiens, UniProt P22314); experiment: UBA1~Ub thioester adduct formation (thioester transfer assay gel resolving UBA1 from UBA1~Ub); type: biochemical; conditions: all concentrations of peptide
T1 sequence (P22314 1-1058): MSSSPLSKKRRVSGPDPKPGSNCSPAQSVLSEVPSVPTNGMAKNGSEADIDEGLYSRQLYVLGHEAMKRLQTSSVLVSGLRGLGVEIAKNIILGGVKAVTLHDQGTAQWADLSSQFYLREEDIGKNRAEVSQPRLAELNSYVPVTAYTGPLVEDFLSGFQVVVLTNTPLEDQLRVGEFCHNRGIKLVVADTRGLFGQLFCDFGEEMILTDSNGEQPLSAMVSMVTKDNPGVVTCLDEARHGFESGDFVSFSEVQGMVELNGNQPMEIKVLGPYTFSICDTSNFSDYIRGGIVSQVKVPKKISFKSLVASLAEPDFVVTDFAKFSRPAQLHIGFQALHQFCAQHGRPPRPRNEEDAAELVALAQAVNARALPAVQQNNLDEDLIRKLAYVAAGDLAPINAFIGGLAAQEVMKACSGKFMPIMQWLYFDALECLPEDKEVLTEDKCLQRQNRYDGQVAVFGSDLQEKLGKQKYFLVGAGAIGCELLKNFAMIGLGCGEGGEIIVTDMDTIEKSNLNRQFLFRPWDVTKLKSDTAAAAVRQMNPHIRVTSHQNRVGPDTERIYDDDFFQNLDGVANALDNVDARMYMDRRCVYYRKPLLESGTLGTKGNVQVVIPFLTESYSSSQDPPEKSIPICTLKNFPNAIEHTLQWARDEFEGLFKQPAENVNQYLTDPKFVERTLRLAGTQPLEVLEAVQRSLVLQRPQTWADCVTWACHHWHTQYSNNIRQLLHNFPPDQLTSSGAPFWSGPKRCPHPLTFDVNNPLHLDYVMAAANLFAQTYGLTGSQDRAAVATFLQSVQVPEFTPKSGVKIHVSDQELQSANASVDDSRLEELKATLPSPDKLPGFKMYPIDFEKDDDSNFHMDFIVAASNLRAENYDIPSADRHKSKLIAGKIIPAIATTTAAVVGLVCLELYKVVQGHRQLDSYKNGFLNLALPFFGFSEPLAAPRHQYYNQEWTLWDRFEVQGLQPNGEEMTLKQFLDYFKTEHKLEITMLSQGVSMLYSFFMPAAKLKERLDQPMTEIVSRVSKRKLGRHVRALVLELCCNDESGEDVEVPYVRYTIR

UBA1 [2] = molecular target: T1, UBA1; experiment: Streptavidin-biotin pull-down with recombinant protein; type: binding; conditions: biotinylated peptide, silver stain
Method: Streptavidin-biotin pull-down assays: For recombinant protein pull-downs, 10 pmol recombinant human UBA1 was incubated with 5 nmol C-terminally biotinylated SAH-UBE2A or DMSO vehicle control in a total volume of 1 mL binding buffer (50 mM NaCl, 20 mM HEPES, pH 7.4, 5 mM DTT) for 1.5 hours at 4° C. 30 μL of pre-equilibrated streptavidin agarose beads were then added and incubated for an additional 1.5 hours at 4° C. The beads were pelleted by centrifugation and washed three times with NP-40 buffer (20 mM HEPES, pH 7.4, 50 mM NaCl, 5 mM DTT, 0.5% [v/v] NP-40) before eluting the protein sample from the beads by heating at 70° C. for 10 min in 3×SDS loading buffer. Samples were subjected to electrophoresis and silver staining (Pierce 24612). […] Proteins were separated by SDS-PAGE gel electrophoresis and detected by western blot against UBE1 (Abcam ab34711). […] Conjugation of ubiquitin to E2 by E1 is monitored by conversion of free E2 (17 kDa) to E2˜ubiquitin conjugate (26 kDa). Quantitation of percent inhibition was calculated from densitometry of silver stain images. Error bars represent ±1 SEM calculated from three independent experiments.

[3] = tested on: HeLa S100 lysate fraction, polyubiquitin chains; experiment: Cellular lysate enzyme inhibition (ubiquitination) assay; type: biochemical; conditions: excess ubiquitin, ATP regeneration solution, vs vehicle
Method: Cellular Lysate Enzyme Inhibition Assays: Cellular lysate assays were performed with 1 mg/mL final concentration HeLa S100 lysate fraction and the indicated concentration of peptide or DMSO vehicle control in an assay buffer containing 1×ATP regeneration solution, 20 mM HEPES, 50 mM NaCl, 5 mM MgCl2, 2 mM DTT, 100 nM ubiquitin aldehyde, and a protease-phosphatase inhibitor cocktail at pH 7.4. Reactions were initiated by addition of ubiquitin to a final concentration of 100 μM and allowed to proceed for 30 minutes at room temperature, followed by quenching with non-reducing LDS loading buffer. Proteins were separated by SDS-PAGE gel electrophoresis and detected by western blot against polyubiquitin (Cell Signaling Technology CST3936).

[4] = Circular dichroism, α-helicity; type: physicochemical; conditions: in solution
Method: Assays to Determine α-Helicity: Compounds are dissolved in an aqueous solution (e.g., 5 mM potassium phosphate solution at pH 7, or distilled H2O, to concentrations of 25-50 μM). Circular dichroism (CD) spectra are obtained on a spectropolarimeter (e.g., Jasco J-710, Aviv) using standard measurement parameters (e.g., temperature, 20° C.; wavelength, 190-260 nm; step resolution, 0.5 nm; speed, 20 nm/sec; accumulations, 10; response, 1 sec; bandwidth, 1 nm; path length, 0.1 cm). The α-helical content of each peptide is calculated by dividing the mean residue ellipticity by the reported value for a model helical decapeptide (Yang et al., Methods Enzymol. 130:208 (1986)).
Circular Dichroism: Acetylated peptides were dissolved in 10% (vol/vol) acetonitrile in water for circular dichroism analyses, performed on an Aviv Biomedical spectrophotometer, as reported (see Bird et. al., Methods in Enzymol., 446:369-386 (2008)).

CCCC[C@H](NC(C)=O)C(=O)N[C@@H](CO)C(=O)N[C@H](C(=O)N1CCC[C@H]1C(=O)N[C@]1(C)CCCCCCC=CCCC[C@@](C)(C(=O)N[C@@H](Cc2ccccc2)C(=O)N[C@@H](CCCCN)C(=O)N[C@@H](CCCNC(=N)N)C(=O)N[C@@H](CC(C)C)C(=O)N[C@@H](CCC(N)=O)C(N)=O)NC(=O)[C@H](CCCNC(=N)N)NC(=O)[C@H](CCCC)NC(=O)[C@H](CC(C)C)NC(=O)[C@H](CCCNC(=N)N)NC(=O)[C@H](CCCNC(=N)N)NC(=O)[C@H](CCCNC(=N)N)NC1=O)[C@@H](C)O [SAH-UBE2A-11, BSTPX1RRRLBRX2FKRLQ] (Ac-[Nle]STP[R8]RRRL[Nle]R[S5]FKRLQ-NH2; staple 5-12)
ability of UBA1 to form covalent UBA1~Ub thioester adduct (UBA1 [1]): no effect on the ability of UBA1 to covalently charge itself with ubiquitin | ability of UBA1 to form covalent UBA1~Ub thioester adduct (UBA1 [1]; listed as SAH-UBE2A): no effect on the ability of UBA1 to form a covalent UBA1˜Ub thioester adduct | direct binding to recombinant UBA1, streptavidin capture (UBA1 [2]): direct binding of SAH-UBE2A to UBA1 | formation of polyubiquitin chains in HeLa cell cytoplasmic fraction [3]: dose-dependently inhibited formation of polyubiquitin chains | helicity / helical content [4]: 54%
